Drawing on PubChem BioAssay (NCI), this text covers TGI and GI50 for eight compounds.

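How tested: cells in 96-well plates exposed to compound for 48 hours at five concentrations. The concentration for 50% growth inhibition is given as GI50. The concentration for full growth arrest is given as TGI.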

Test systems include A498 renal; CAKI-1 renal; CCRF-CEM leukemia; HCT-15 colon; HT29 colon; K-562 leukemia; KM12 colon; MDA-N; NCI-H460 lung; OVCAR-5 ovarian; PC-3 prostate; SK-MEL-2 melanoma; SK-OV-3 ovarian; SN12C renal; SNB-75 CNS; TK-10 renal; UACC-62 melanoma.
Common to all, as to test: inhibition of tumour cell growth, NCI panel, 48 h

`CSc1nc(-c2cc3c(c(SC)n2)CCC3)cc2c1CCC2`: the TGI in the assay with A498 renal, with CAKI-1 renal, with CCRF-CEM leukemia, with HCT-15 colon, in the assay with HT29 colon and in the assay on K-562 leukemia was above 100 µM in each case. Moreover, the TGI with KM12 colon, in the assay on MDA-N, in the assay with NCI-H460 lung, in the assay with OVCAR-5 ovarian, in the assay on PC-3 prostate and in the assay with SK-MEL-2 melanoma was above 100 µM in each case. Besides, the TGI in the assay with SK-OV-3 ovarian, in the assay on SN12C renal, in the assay on SNB-75 CNS, with TK-10 renal and in the assay on UACC-62 melanoma was above 100 µM each time.
Take `c1ccc2c(Cc3c[nH]c4ccccc34)c[nH]c2c1`: the TGI is above 100 µM with A498 renal; 31.4 µM in the assay with CAKI-1 renal; 37.2 µM with CCRF-CEM leukemia; above 100 µM with HCT-15 colon; 30.2 µM in the assay with HT29 colon; above 100 µM in the assay with K-562 leukemia. Also, the TGI stood at 40.5 µM in the assay with KM12 colon; 41.5 µM in the assay with MDA-N; 40.5 µM in the assay on NCI-H460 lung; 29.4 µM with OVCAR-5 ovarian; 38.3 µM with PC-3 prostate; 52.6 µM in the assay with SK-MEL-2 melanoma. Moreover, the TGI in the assay on SK-OV-3 ovarian was 51 µM; with SN12C renal, 31.7 µM; in the assay on SNB-75 CNS it was 36.8 µM; with TK-10 renal it was 35.2 µM; in the assay on UACC-62 melanoma, above 100 µM.
Turning to `O=C1CNc2cc(N3CCN(c4cccc(C(F)(F)F)c4)CC3)ccc2N1`, the figures for the GI50 with A498 renal and with K-562 leukemia were 24.7 µM and 9 µM, respectively. Further, the TGI in the assay with A498 renal, in the assay with CAKI-1 renal, with CCRF-CEM leukemia, with HCT-15 colon, with HT29 colon and with K-562 leukemia was above 100 µM each time. Besides, the TGI in the assay on KM12 colon was above 100 µM; in the assay with MDA-N, above 100 µM; with NCI-H460 lung it was above 100 µM; with OVCAR-5 ovarian, above 100 µM; with PC-3 prostate it was above 82.7 µM; with SK-MEL-2 melanoma, above 100 µM. Further, the TGI with SK-OV-3 ovarian is above 100 µM; in the assay on SN12C renal, above 100 µM; with SNB-75 CNS, above 100 µM; with TK-10 renal, above 100 µM; in the assay on UACC-62 melanoma, above 86.1 µM.
With `Cc1ccc(N2C(=O)CC(=O)N(NC(=O)C(C)Oc3ccccc3C)C2=S)cc1` (stereo not drawn), the TGI in the assay on A498 renal was above 100 µM; with CAKI-1 renal it was above 100 µM; in the assay on CCRF-CEM leukemia, 5.59 µM; with HCT-15 colon it was above 100 µM; in the assay on HT29 colon it was above 100 µM; in the assay with K-562 leukemia, above 100 µM. The TGI in the assay on KM12 colon, in the assay on MDA-N, in the assay on NCI-H460 lung, with OVCAR-5 ovarian, with PC-3 prostate and with SK-MEL-2 melanoma was above 100 µM throughout. In addition, the TGI in the assay with SK-OV-3 ovarian, in the assay with SN12C renal, in the assay with SNB-75 CNS, with TK-10 renal and in the assay on UACC-62 melanoma was above 100 µM each time.
On to `CC(C)(N=NC(C)(C)C1=NCCN1)C1=NCCN1`, for which the TGI in the assay with A498 renal, in the assay on CAKI-1 renal, in the assay on CCRF-CEM leukemia, in the assay on HCT-15 colon, in the assay with HT29 colon and with K-562 leukemia was above 100 µM each time. The TGI in the assay with KM12 colon, in the assay on MDA-N, in the assay on NCI-H460 lung, in the assay on OVCAR-5 ovarian, in the assay on PC-3 prostate and in the assay with SK-MEL-2 melanoma was above 100 µM each time. In addition, the TGI in the assay on SK-OV-3 ovarian, in the assay on SN12C renal, in the assay with SNB-75 CNS, in the assay on TK-10 renal and in the assay on UACC-62 melanoma was above 100 µM each time.
With `O=C(/C(Cl)=C/c1ccccc1)c1ccccc1`, the TGI was 46.1 µM in the assay on A498 renal; 3.97 µM in the assay on CAKI-1 renal; 11.5 µM with CCRF-CEM leukemia; 8.35 µM in the assay with HCT-15 colon; 3.52 µM with HT29 colon; above 26 µM with K-562 leukemia. The TGI in the assay with KM12 colon worked out at 14.9 µM; in the assay on MDA-N, 4.52 µM; with NCI-H460 lung, 30.5 µM; in the assay on OVCAR-5 ovarian, 19.8 µM; in the assay on PC-3 prostate it was 11.6 µM; in the assay on SK-MEL-2 melanoma, 28.6 µM. Besides, the TGI with SK-OV-3 ovarian was 39.8 µM; in the assay on SN12C renal, 3.92 µM; in the assay on SNB-75 CNS it was 26.9 µM; with TK-10 renal, 11.7 µM; in the assay on UACC-62 melanoma, 22.9 µM.
For `COc1ccc(C2c3cc4c(cc3OC(N3CCOCC3)C2C)OCO4)c(OC)c1` (stereo not drawn), the TGI was 15 µM in the assay on A498 renal; 62.1 µM in the assay on CAKI-1 renal; 38.1 µM in the assay on CCRF-CEM leukemia; above 75.9 µM in the assay with HCT-15 colon; 13.2 µM in the assay with HT29 colon; 25 µM in the assay with K-562 leukemia. The TGI was 34 µM in the assay with KM12 colon; 5.25 µM in the assay with MDA-N; 24.4 µM with NCI-H460 lung; 73.9 µM with OVCAR-5 ovarian; above 100 µM in the assay with PC-3 prostate; 21.7 µM in the assay on SK-MEL-2 melanoma. Also, the TGI in the assay on SK-OV-3 ovarian is 52.6 µM; in the assay on SN12C renal, 65.9 µM; in the assay with SNB-75 CNS, 23.4 µM; in the assay with TK-10 renal, 69.6 µM; with UACC-62 melanoma, 20.9 µM.
In the case of `Cc1ccnc2c1c(=O)c1ccccc1n2C`, the TGI in the assay on A498 renal was above 100 µM; in the assay with CAKI-1 renal it was 51.4 µM; in the assay with CCRF-CEM leukemia, above 100 µM; in the assay on HCT-15 colon, above 100 µM; in the assay with HT29 colon it was 85.2 µM; in the assay with K-562 leukemia, above 100 µM. In addition, the TGI in the assay on KM12 colon was above 100 µM; with MDA-N, above 100 µM; with NCI-H460 lung it was 44.9 µM; in the assay on OVCAR-5 ovarian, above 100 µM; in the assay with PC-3 prostate, above 100 µM; with SK-MEL-2 melanoma, above 100 µM. Besides, the TGI is above 100 µM in the assay on SK-OV-3 ovarian; above 100 µM in the assay on SN12C renal; 56.3 µM in the assay with SNB-75 CNS; 89.8 µM in the assay on TK-10 renal; 41.4 µM in the assay on UACC-62 melanoma.
